Laboratory results: patent US20230065158A1, “OXABICYCLOHEPTANES FOR TREATMENT OF SMALL CELL LUNG CANCER” (Lixte Biotechnology, Inc., priority 2021, published 2023)

What was measured:
H446 cells = settings: human, 72 h
Text: To determine specific cytotoxicity, we used Cell Counting Kit-8 (Dojindo Molecular Technologies, Rockville, Md.) as previously described (50).

H69 cells = assay: Glucose uptake assay (glucose oxidase); assay type: cell-based; settings: LB-100 20 μM, compared with control without cells
Text: FIGS. 4A-4F depict a reactome pathway analysis of PamGene PTKs and STKs after LB-100 treatment of H524 cells and Biolog phenotype MicroArray. […] Table includes 10 carbon sources affected by LB-100 (n=3). […] P<0.001 (***) for control (untreated cells) vs. LB-100. FIG. 4D: Amplex Red Glucose/Oxidase assay kit was used to measure glucose level in cell culture media. […] Glucose concentration detected in initial medium and counted as 100%. Subtracting final medium level of glucose from initial glucose medium concentration yielded % glucose in the medium with cells (n=3). Effect of LB-100 on MET phosphorylation. FIG. 4E: H524 and H69 cells were treated overnight with LB-100 (H524—5 μM and H69—20 μM) following by stimulation with 100 ng/ml HGF in 10 min. Cells were collected and lysed for WB analysis with pMET and total MET antibody. Pan-actin was used as loading control (n=3). FIG. 4F: H524 cell lysates (control, LB-100, carboplatin and combination (LB-100/carboplatin) were analyzed by western blots to check phosphorylation status of MET at Ser985 and Tyr1234/1235. Actin was used as a loading control (n=3). […]
Glucose consumption was determined by using a colorimetric glucose assay (Invitrogen, Carlsbad, Calif.) following the manufacturer's instructions. […] The uptake of glucose was determined compared with initial glucose concentration in the cell culture medium, which was taken as 100%.

H524 and H69 cells = assay: Whole cell Pt accumulation, ICP-MS; assay type: cell-based; settings: LB100 pretreatment then carboplatin 4 hours, versus carboplatin alone
Protocol: FIGS. 3A-3H depict SCLC cell invasion through HUVEC monolayer. FIGS. 3A-3D: Graphical representation of H524/H69 cell ability to disrupt a confluent HUVEC monolayer using an electrical substrate-impedance sensing system. Arrows indicate time point when cells were added. Inserts show mean values and SD for each group after 20 h of drug treatment. After treatment, cell viability was counted using an Auto T4 Cell Counter (Nexcelom Cellometer). Cell viability was 90-95% for drug-treated groups (n=2). p<0.001 (***) for control (untreated cells) vs. drug combination (LB100/carboplatin). Whole cell Pt accumulation. Graphical representation of LB-100 effect on platinum uptake by SCLC cells. […]
To this end, platinum (Pt) levels were measured in H524 and H69 cells using Inductively Coupled Plasma Mass Spectrometry (ICP-MS). […]
Samples were prepared and analyzed for Pt concentrations at the Isotoparium (California Institute of Technology), using precleaned Teflon beakers (PFA), Optima grade reagents (Fisher Chemical) and 18.2 MΩ Milli-Q water. […] All samples were analyzed using an iCAP RQ (ThermoFisher, Waltham, Mass.) ICP-MS and an SC-2 DX autosampler (Elemental Scientific, Omaha, Nebr.). […] A Pt standard curve (0.001, 0.01, 0.1, 1.0 ppb, Spex Certiprep Assurance, Lot #24-140PTM) was created using the HNO3 stock solution and measured for sample calibration. […]

[1] = tested on: extensive-stage small cell lung carcinoma; settings: first study subject
Text: The Phase Ib study is a single arm study expected to enroll 18 evaluable patients (maximum 30) entered in groups of 3 at escalating doses of LB-100 using the traditional 3+3 design. […] Each cycle is defined as 3 weeks (21 days). Patients will then proceed to maintenance with LB-100 and atezolizumab. Patients who discontinue study therapy without disease progression will continue to be evaluated for tumor response using RECIST v1.1 (Appendix B) guidelines every 6-8 weeks until disease progression, death, or study closure.
Dose Escalation: The Phase I dose-finding will use a traditional 3+3 to determine the maximum tolerated dose (MTD), based on first cycle DLTs. A maximum of 4 dose levels of LB-100 will be explored. […]
Treatment Overview: This Phase Ib study of LB-100 diluted in 50 mL of normal saline for injection will be administered intravenously in the outpatient clinic over 15 minutes in patients with extensive-stage small cell lung cancer. […] All three patients at each dose level will be assessed for evidence of limiting toxicity through their return visit day 21 (and any delay prior to the start of cycle 2) before the decision is made for dose escalation in the next cohort.

SMILES: C[NH+]1CCN(C(=O)C2C(C(=O)O)[C@H]3CC[C@@H]2O3)CC1 (stereo in doubt) [LB-100, 3-[(4-Methylpiperazin-1-yl)carbonyl]-7-oxabicyclo[2.2.1]heptane-2-carboxylic acid]
- IC50 (H446 cells): 6.9 µM
- reduction of consumption of glucose in media (H69 cells): 65%
- Pt level in cells (H524 and H69 cells): enhanced the uptake of Pt
- partial objective response ([1]; after the 2nd cycle, LB-100 0.83 mg/m2 days 1 & 3 with carboplatin/etoposide/atezolizumab): 47%
- decrease in measurable tumor ([1]; following the 4th and last cycle of induction therapy): 58%
